According to patent publication EP3352763B1 (priority 2015, dated 2017):

Tests used:
[1] = tested on: Influenzavirus A/Regensburg/D6/2009/H1N1; test: Screening of antiviral effect of test substances (Fig. 1); type: cell-based; details: for antivirale Aktivität: Fig. 1, result in words
in vitro [2] = details: dog, mdck
[3] = tested on: A/Mississippi/3/2001/H1N1; type: cell-based, Influenzaviren; details: TC50/EC50, A/Mississippi/3/2001/H1N1
A/Victoria/3/75/H3N2 = type: cell-based, Influenzaviren
[4] = tested on: A/Regensburg/D6/2009/H1N1; type: cell-based, Influenzaviren; details: TC50/EC50, A/Regensburg/D6/2009/H1N1
[5] = tested on: Influenza-Viren vom Stamm A/Regensburg/D6/2009/H1N1; type: cell-based
Hantaviren = type: cell-based
in vitro [6] = details: monkey, vero cells

SMILES: O=C(O)c1cc(O)c(O)c(O)c1 [Gallussäure, reference compound]
- antivirale Aktivität [1]: antivirale Aktivität

SMILES: O=C(/C=C/c1ccc(O)cc1)OC[C@H]1O[C@@H](Oc2c(-c3ccc(O)cc3)oc3cc(O)cc(O)c3c2=O)[C@H](O)[C@@H](O)[C@@H]1O [Tilirosid, Kaempferol-3-(6"-trans-p-coumaroyl)glucosid]
- TC50 (A549-Zellen): 1.862 µM
- antivirale Aktivität [1]: höchste antivirale Aktivität
- Reduktion der Viruslast ([1]; Fig. 1, screening of substances): > 90%
- CC50 (in vitro [2]): 932 µM
- Selektivitätsindex (S.I.) [3]: 2.906
- Selektivitätsindex (S.I.) (A/Victoria/3/75/H3N2): 134
- Selektivitätsindex (S.I.) [4]: 433
- antivirale Wirkung (Reduktion der Viruslast) [5]: > 90%
- antiviraler Effekt [5]: keinen antiviralen Effekt
- Reduktion der Viruslast ([5]; pre-incubation of the viruses with Tilirosid): keiner Reduktion der Viruslast
- Wirkung gegen Hantaviren (Hantaviren): nicht gegen Hantaviren wirkt
- CC50 (in vitro [6]): 126 µM
